Assay results from patent US8329645B2, “Polymyxin derivatives and uses thereof” (priority 2008, dated 2012).
Read-outs that look alike come from different tables or passages of the source.

How the values were obtained:
[1] = rat, Li et al. (2003), identical dosing and administration procedure, cited from earlier work
E. cloacae ATCC23355 = test: E-test MIC with or without NAB7061 (4 μg/ml), Mueller-Hinton agar; format: cell-based, Enterobacter cloacae
Procedure: (§1) MICs were determined by using E-strips (Biodisk Ltd., Solna, Sweden) according to the manufacturer's instructions.
(§2) The strains originated from ATCC (11 strains), CCUG (11 strains), and NCTC (The National Collection of Type Cultures, Colindale, U.K.; 2 strains). Eight strains (the F-strains) were purchased from Mobidiag Ltd., Helsinki, Finland.

E. coli IH3080 [2] = test: as above; format: cell-based, Escherichia coli
Procedure: as §1, §2

E. coli ATCC25922 = conditions: E. coli ATCC25922
Procedure: as §1, §2

K. pneumoniae ATCC13883 = conditions: K. pneumoniae ATCC13883
Procedure: as §1, §2

Ac. baumannii F264 = test: E-test MIC with or without NAB7061 (4 μg/ml), Mueller-Hinton agar; format: cell-based, Acinetobacter baumannii; conditions: for MIC of carbapenem at NAB 7061 concn 0 μg/ml: A. baumannii F264, absence of NAB 7061; for MIC of antibiotic in the presence of 4 μg/ml of NAB 7061: Ac. baumannii F264
Procedure: as §1, §2

Ac. baumannii ATCC19606 = test: as above; format: cell-based, Acinetobacter baumannii; conditions: for MIC of carbapenem at NAB 7061 concn 0 μg/ml: A. baumannii ATCC19606, absence of NAB 7061; for MIC of antibiotic in the presence of 4 μg/ml of NAB 7061: Ac. baumannii ATCC19606
Procedure: as §1, §2

Ac. baumannii F263 = test: as above; format: cell-based, Acinetobacter baumannii; conditions: for MIC of carbapenem at NAB 7061 concn 0 μg/ml: A. baumannii F263, absence of NAB 7061; for MIC of antibiotic in the presence of 4 μg/ml of NAB 7061: Ac. baumannii F263
Procedure: as §1, §2

[3] = system: Acinetobacter baumannii ATCC 19606; test: Growth inhibition around wells on LB agar plates; format: cell-based; conditions: A. baumannii ATCC 19606
Procedure: (§3) From an overnight-grown culture of IH3080 on LB agar, a suspension of approx. 10^8 cells/ml was prepared in 0.9% NaCl. Aliquots of this suspension were then pipetted on the agar plates and the plates were gently shaken to spread the suspension evenly on the entire surface of the plate. Thereafter, the unabsorbed part of the suspension was removed by using a Pasteur pipette. After the surface had dried, small wells (diameter, 2 mm) were drilled on the plates (five wells per plate) by using a sterile sharp-edged narrow metal tube, single-use pipette tip, and vacuum suction. An alternative method used a swab to spread the inoculum. […] Controls included 0.9% NaCl solution without the compound to be tested. The plates were then incubated for 18 h at 37° C. whereafter the diameters of growth inhibition zones around each well were measured; the diameter of the well itself was not reduced. Finally, the diameters were converted to surface areas of growth inhibition (in square mm).
(§4) Direct antibacterial activity of sixteen NAB compounds against Acinetobacter baumannii ATCC 19606 and Pseudomonas aeruginosa ATCC 27853 was tested by using the susceptibility determination method described in Example 2. Five compounds (NAB7062, NAB734, NAB737, NAB739, and NAB740) had very notable activity against A. baumannii. […] The antibacterial activity of NAB739 and NAB740 were as strong as or even stronger than that of polymyxin B.

E. coli IH3080 [4] = test: Growth inhibition around wells on LB agar plates; format: cell-based, Escherichia coli
Procedure: Peptides synthesized in Example 1, all carrying at least two (2) but not more than three (3) positive charges, were studied for their ability to inhibit the growth of E. coli. This was tested employing LB agar (LB Agar Lennox, Difco, BD, Sparks, Md., U.S.A) plates. The indicator organism E. coli IH3080 (K1:O018) was an encapsulated strain originally isolated from a neonate suffering from meningitis (Vaara et al. 1984) and obtained from National Public Health Institute, Helsinki, Finland.
as §3

[5] = system: Ps. aeruginosa ATCC 27853; test: Sensitization to rifampin: growth inhibition around wells on LB plates containing rifampin; format: cell-based, Pseudomonas aeruginosa; conditions: 4 μg
[6] = system: Pseudomonas aeruginosa ATCC 27853; test: Growth inhibition around wells on LB agar plates; format: cell-based; conditions: Ps. aeruginosa ATCC 27853
Procedure: (§5) From an overnight-grown culture of IH3080 on LB agar, a suspension of approx. 10^8 cells/ml was prepared in 0.9% NaCl. Aliquots of this suspension were then pipetted on the agar plates and the plates were gently shaken to spread the suspension evenly on the entire surface of the plate. Thereafter, the unabsorbed part of the suspension was removed by using a Pasteur pipette. After the surface had dried, small wells (diameter, 2 mm) were drilled on the plates (five wells per plate) by using a sterile sharp-edged narrow metal tube, single-use pipette tip, and vacuum suction. An alternative method used a swab to spread the inoculum. Samples (4 μl and 10 μl) of the peptide solution in 0.9% NaCl (at concentrations of 1 μg/ml and 0.1 μg/ml) were then pipetted to the wells and the sample fluids were allowed to absorb. Controls included 0.9% NaCl solution without the compound to be tested. The plates were then incubated for 18 h at 37° C. whereafter the diameters of growth inhibition zones around each well were measured; the diameter of the well itself was not reduced. Finally, the diameters were converted to surface areas of growth inhibition (in square mm).
as §4

A. baumannii ATCC 19606 = test: Sensitization to rifampin: growth inhibition around wells on LB plates containing rifampin; format: cell-based, Acinetobacter baumannii; conditions: 4 μg
E. coli IH3080 [7] = test: as above; format: cell-based, Escherichia coli; conditions: 4 μg of compound
Procedure: as §5

A. baumannii F264 = test: E-test MIC of antibiotics on Mueller Hinton agar containing increasing concentrations of NAB739; format: cell-based, Acinetobacter baumannii
P. aeruginosa ATCC 27853 = test: as above; format: cell-based, Pseudomonas aeruginosa
A. baumannii ATCC19606 = test: as above; format: cell-based, Acinetobacter baumannii

Compound	Sensitization factor to antibiotic (MIC without / with 4 μg/ml of NAB 7061) (E. cloacae ATCC23355)	Sensitization factor to antibiotic (MIC without / with 4 μg/ml of NAB 7061) (E. coli IH3080 [2])	Sensitization factor to antibiotic (MIC without / with 4 μg/ml of NAB 7061) (E. coli ATCC25922)	Sensitization factor to antibiotic (MIC without / with 4 μg/ml of NAB 7061) (K. pneumoniae ATCC13883)	growth inhibition around a well ([3]; 4 μg)	growth inhibition around a well ([3]; 10 μg)	growth inhibition around a well (E. coli IH3080 [4]; 4 μg of compound per well)	growth inhibition around a well (E. coli IH3080 [4]; 10 μg of compound per well)	growth inhibition around a well in the presence of rifampin ([5]; rifampin 0 μg/ml)	growth inhibition around a well in the presence of rifampin ([5]; rifampin 0.3 μg/ml)	growth inhibition around a well ([6]; 4 μg)	growth inhibition around a well ([6]; 10 μg)	growth inhibition around a well in the presence of rifampin (A. baumannii ATCC 19606; rifampin 0 μg/ml)	growth inhibition around a well in the presence of rifampin (A. baumannii ATCC 19606; rifampin 0.1 μg/ml)	growth inhibition around a well in the presence of rifampin (A. baumannii ATCC 19606; rifampin 0.3 μg/ml)	growth inhibition around a well in the presence of rifampin (E. coli IH3080 [7]; rifampin 0 μg/ml)	growth inhibition around a well in the presence of rifampin (E. coli IH3080 [7]; rifampin 0.1 μg/ml)	growth inhibition around a well in the presence of rifampin (E. coli IH3080 [7]; rifampin 1.0 μg/ml)	further results
Colistin (polymyxin E)	–	–	–	–	–	–	–	–	–	–	–	–	–	–	–	–	–	–	clearance [1]: 5.2 ± 0.4 mL/min/kg; half-life [1]: 1.24 ± 0.22 h; renal clearance [1]: 0.010 ± 0.008 mL/min/kg; urinary recovery [1]: 0.18±0.14 % of dose in 24 h; volume of distribution [1]: 0.496 ± 0.06 L/kg; urinary recovery ([1]; listed as polymyxin E (colistin)): about 0.18±0.14 % of dose in 24 h
COc1cc(Cc2cnc(N)nc2N)cc(OC)c1OC [Trimetoprim]	3	3	4	2	–	–	–	–	–	–	–	–	–	–	–	–	–	–	–
COc1c(N2C[C@@H]3CCCN[C@@H]3C2)c(F)cc2c(=O)c(C(=O)O)cn(C3CC3)c12 [Moxifloxacin]	4	–	–	–	–	–	–	–	–	–	–	–	–	–	–	–	–	–	–
C[C@@H](O)[C@H]1C(=O)N2C(C(=O)O)=C(SCCN=CN)C[C@H]12 [imipenem]	–	–	–	–	–	–	–	–	–	–	–	–	–	–	–	–	–	–	MIC of carbapenem at NAB 7061 concn 0 μg/ml (Ac. baumannii F264): 24 µg/mL; MIC of antibiotic in the presence of 4 μg/ml of NAB 7061 (Ac. baumannii F264): 6 µg/mL; MIC of carbapenem at NAB 7061 concn 0 μg/ml (Ac. baumannii ATCC19606): 0.38 µg/mL; MIC of antibiotic in the presence of 4 μg/ml of NAB 7061 (Ac. baumannii ATCC19606): 0.38 µg/mL; MIC of carbapenem at NAB 7061 concn 0 μg/ml (Ac. baumannii F263): >32 µg/mL; MIC of antibiotic in the presence of 4 μg/ml of NAB 7061 (Ac. baumannii F263): 8 µg/mL
OA-Thr-Abu-cy[Dab-Dab-DLeu-Leu-Dab-Dab-Thr-] [NAB 718]	–	–	–	–	0 square millimeters	0 square millimeters	0 square millimeters	0 square millimeters	0 square millimeters	0 square millimeters	0 square millimeters	0 square millimeters	0 square millimeters	0 square millimeters	38 square millimeters	0 square millimeters	13 square millimeters	133 square millimeters	growth inhibition around a well in the presence of rifampin ([5]; rifampin 0.1 μg/ml): 0 square millimeters
OA-Thr-Abu-cy[Dab-Dab-DPhe-Leu-Dab-Dab-Leu-] [NAB 719]	–	–	–	–	0 square millimeters	0 square millimeters	7 square millimeters	50 square millimeters	0 square millimeters	7 square millimeters	0 square millimeters	0 square millimeters	0 square millimeters	154 square millimeters	133 square millimeters	7 square millimeters	79 square millimeters	95 square millimeters	growth inhibition around a well in the presence of rifampin ([5]; rifampin 0.1 μg/ml): 0 square millimeters
quinupristin-dalfopristin [Quinupristin-dalfopr.]	>5	>21	>21	1	–	–	–	–	–	–	–	–	–	–	–	–	–	–	–
CC(=O)NC[C@H]1CN(c2ccc(N3CCOCC3)c(F)c2)C(=O)O1 [Linezolid]	>8	>8	>11	>4	–	–	–	–	–	–	–	–	–	–	–	–	–	–	–
C[C@@H](O)[C@H]1C(=O)N2C(C(=O)O)=C(S[C@@H]3CN[C@H](C(=O)N(C)C)C3)[C@H](C)[C@H]12 [meropenem]	–	–	–	–	–	–	–	–	–	–	–	–	–	–	–	–	–	–	MIC of antibiotic in the presence of NAB739 (A. baumannii F264; NAB 739 0 μg/ml): >32 µg/mL; MIC of antibiotic in the presence of NAB739 (A. baumannii F264; NAB 739 0.5 μg/ml): 1 µg/mL; MIC of antibiotic in the presence of NAB739 (A. baumannii F264; NAB 739 1 μg/ml): 0.38 µg/mL; MIC of antibiotic in the presence of NAB739 (P. aeruginosa ATCC 27853; NAB 739 0 μg/ml): 0.25 µg/mL; MIC of antibiotic in the presence of NAB739 (P. aeruginosa ATCC 27853; NAB 739 0.5 μg/ml): 0.25 µg/mL; MIC of antibiotic in the presence of NAB739 (P. aeruginosa ATCC 27853; NAB 739 1 μg/ml): 0.25 µg/mL; MIC of antibiotic in the presence of NAB739 (P. aeruginosa ATCC 27853; NAB 739 2 μg/ml): 0.25 µg/mL; MIC of antibiotic in the presence of NAB739 (P. aeruginosa ATCC 27853; NAB 739 […]): 0.25 µg/mL; MIC of antibiotic in the presence of NAB739 (A. baumannii ATCC19606; NAB 739 0 μg/ml): 1 µg/mL; MIC of antibiotic in the presence of NAB739 (A. baumannii ATCC19606; NAB 739 0.5 μg/ml): 0.25 µg/mL; MIC of antibiotic in the presence of NAB739 (A. baumannii ATCC19606; NAB 739 1 μg/ml): 0.125 µg/mL; MIC of carbapenem at NAB 7061 concn 0 μg/ml (Ac. baumannii F264): 32 µg/mL; MIC of antibiotic in the presence of 4 μg/ml of NAB 7061 (Ac. baumannii F264): 4 µg/mL; MIC of carbapenem at NAB 7061 concn 0 μg/ml (Ac. baumannii ATCC19606): 1.5 µg/mL; MIC of antibiotic in the presence of 4 μg/ml of NAB 7061 (Ac. baumannii ATCC19606): 0.75 µg/mL; MIC of carbapenem at NAB 7061 concn 0 μg/ml (Ac. baumannii F263): >32 µg/mL; MIC of antibiotic in the presence of 4 μg/ml of NAB 7061 (Ac. baumannii F263): 6 µg/mL
OA-Thr-DAla-cy[Dab-Dab-DPhe-Thr-Dab-Dab-Thr-] [NAB 738]	–	–	–	–	0 square millimeters	0 square millimeters	0 square millimeters	64 square millimeters	0 square millimeters	13 square millimeters	0 square millimeters	0 square millimeters	0 square millimeters	95 square millimeters	154 square millimeters	0 square millimeters	133 square millimeters	177 square millimeters	–
